According to ChEMBL document CHEMBL1629418, “Spiroimidazolidinone NPC1L1 inhibitors. Part 2: structure-activity studies and in vivo efficacy” (Bioorg Med Chem Lett, 2010):

Biological target: T1, NPC1-like intracellular cholesterol transporter 1 (Homo sapiens, UniProt Q9UHC9)
T1 sequence (Q9UHC9 whole entry): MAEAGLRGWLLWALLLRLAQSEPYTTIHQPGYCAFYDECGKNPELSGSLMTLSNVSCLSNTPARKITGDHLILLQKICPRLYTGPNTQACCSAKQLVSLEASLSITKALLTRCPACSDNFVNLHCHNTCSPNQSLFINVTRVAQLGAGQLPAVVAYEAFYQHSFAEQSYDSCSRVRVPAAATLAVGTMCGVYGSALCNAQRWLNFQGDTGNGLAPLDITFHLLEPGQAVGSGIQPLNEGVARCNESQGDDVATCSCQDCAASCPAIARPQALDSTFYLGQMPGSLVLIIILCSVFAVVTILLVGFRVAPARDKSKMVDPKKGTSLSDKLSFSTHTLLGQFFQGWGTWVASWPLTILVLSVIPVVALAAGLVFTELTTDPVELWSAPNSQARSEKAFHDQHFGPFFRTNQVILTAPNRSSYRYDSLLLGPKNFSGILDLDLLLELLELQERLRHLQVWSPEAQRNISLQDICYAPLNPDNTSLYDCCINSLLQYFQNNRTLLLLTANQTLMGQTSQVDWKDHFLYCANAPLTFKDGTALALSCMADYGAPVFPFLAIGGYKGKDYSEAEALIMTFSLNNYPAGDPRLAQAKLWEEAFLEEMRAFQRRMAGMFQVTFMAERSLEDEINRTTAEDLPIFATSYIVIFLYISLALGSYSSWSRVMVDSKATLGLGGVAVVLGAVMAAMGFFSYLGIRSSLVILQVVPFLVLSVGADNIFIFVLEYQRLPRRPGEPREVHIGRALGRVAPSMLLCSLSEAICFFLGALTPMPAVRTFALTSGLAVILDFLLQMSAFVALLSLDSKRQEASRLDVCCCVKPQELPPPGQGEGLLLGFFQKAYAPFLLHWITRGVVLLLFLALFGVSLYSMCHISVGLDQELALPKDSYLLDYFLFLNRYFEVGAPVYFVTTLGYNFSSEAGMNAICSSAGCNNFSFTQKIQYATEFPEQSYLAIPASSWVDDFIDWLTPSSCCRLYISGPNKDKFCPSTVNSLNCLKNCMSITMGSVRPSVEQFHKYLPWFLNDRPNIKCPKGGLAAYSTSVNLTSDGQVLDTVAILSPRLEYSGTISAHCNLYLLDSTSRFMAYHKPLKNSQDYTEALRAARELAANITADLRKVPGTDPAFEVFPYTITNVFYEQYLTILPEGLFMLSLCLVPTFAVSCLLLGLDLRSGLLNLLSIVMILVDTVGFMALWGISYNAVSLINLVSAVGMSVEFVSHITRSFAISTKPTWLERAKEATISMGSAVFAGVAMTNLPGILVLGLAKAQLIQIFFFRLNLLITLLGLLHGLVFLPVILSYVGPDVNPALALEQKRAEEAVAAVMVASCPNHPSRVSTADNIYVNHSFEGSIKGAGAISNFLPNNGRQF
Assay: Displacement of [35S](2S,3S,4S,5R,6S)-6-(4-((2S,3R)-3-((S)-3-(4-fluorophenyl)-3-hydroxypropyl)-1-(4-(3-(methylsulfonamido)prop-1-ynyl)phenyl)-4-oxoazetidin-2-yl)phenoxy)-3,4,5-trihydroxytetrahydro-2H-pyran-2-carboxylic acid from human NCP1L1 expressed in HEK 293
Assay type: cell-based, HEK293

Row | SMILES | IC50 [µM]
1 | CC(C)(C)c1ccc(C(=O)N2CCC3(CC2)C(=O)N(CC(=O)N2CCNCC2)CN3c2ccccc2)cc1 | 22
2 | CC(C)(C)c1ccc(C(=O)N2CCC3(CC2)C(=O)N(CC(=O)NCCN)CN3c2ccccc2)cc1 | 59
3 | CC(C)(C)c1ccc(C(=O)N2CCC3(CC2)C(=O)N(CC(=O)NCCNS(C)(=O)=O)CN3c2ccccc2)cc1 | 49
4 | CC(C)(C)c1ccc(C(=O)N2CCC3(CC2)C(=O)N(CC(=O)NCCCO)CN3c2ccccc2)cc1 | 23.6
5 | CC(C)(C)c1ccc(C(=O)N2CCC3(CC2)C(=O)N(CC(=O)N2CCCCC2CO)CN3c2ccccc2)cc1 (centres undefined) | 11.8
6 | CS(=O)(=O)NCCNC(=O)CN1CN(c2ccccc2)C2(CCN(C(=O)c3ccc(C4CCCCC4)cc3)CC2)C1=O | 7
7 | CC(C)(C)OC(=O)NCNC(=O)CN1CN(c2ccccc2)C2(CCN(C(=O)c3ccc(C(C)(C)C)cc3)CC2)C1=O | 59
8 | CC(C)(C)c1ccc(C(=O)N2CCC3(CC2)C(=O)N(CC(=O)NCCCCNS(C)(=O)=O)CN3c2ccccc2)cc1 | 10.3
9 | CC(C)(C)c1ccc(C(=O)N2CCC3(CC2)C(=O)N(CC(=O)N2CCCC(CO)C2)CN3c2ccccc2)cc1 (centres undefined) | 8.2
10 | CC(C)(C)OC(=O)NC1CCN(C(=O)CN2CN(c3ccccc3)C3(CCN(C(=O)c4ccc(C(C)(C)C)cc4)CC3)C2=O)CC1 | 8.3
11 | CC(C)(C)c1ccc(C(=O)N2CCC3(CC2)C(=O)N(CC(=O)NCCCCO)CN3c2ccccc2)cc1 | 8.3
12 | CC(C)(C)OC(=O)NCC1CCCN(C(=O)CN2CN(c3ccccc3)C3(CCN(C(=O)c4ccc(C(C)(C)C)cc4)CC3)C2=O)C1 (centres undefined) | 9.5
13 | CCOC(=O)C1CCCN(C(=O)CN2CN(c3ccccc3)C3(CCN(C(=O)c4ccc(C(C)(C)C)cc4)CC3)C2=O)C1 (centres undefined) | 8.2
14 | CS(=O)(=O)N1CCN(C(=O)CN2CN(c3ccccc3)C3(CCN(C(=O)c4ccc(C5CCCCC5)cc4)CC3)C2=O)CC1 | 6.3
15 | CC(C)(C)c1ccc(C(=O)N2CCC3(CC2)C(=O)N(CC(=O)NCCO)CN3c2ccccc2)cc1 | 19.2
16 | CC(C)(C)c1ccc(C(=O)N2CCC3(CC2)C(=O)N(CC(=O)N2CCCCC2CCO)CN3c2ccccc2)cc1 (centres undefined) | 6.1
17 | CC(C)(C)c1ccc(C(=O)N2CCC3(CC2)C(=O)N(CC(=O)NCCCN)CN3c2ccccc2)cc1 | 49
18 | CCn1nc(Cc2ccccc2)cc1C1CCN(C(=O)CN2CN(c3ccccc3)C3(CCN(C(=O)c4ccc(C(C)(C)C)cc4)CC3)C2=O)CC1 | 6.4

Row | SMILES | IC50 [µM]
19 | CC1CCCN(C(=O)CN2CN(c3ccccc3)C3(CCN(C(=O)c4ccc(C(C)(C)C)cc4)CC3)C2=O)C1 (centres undefined) | 12
20 | CCc1c(C)c(C2CCN(C(=O)CN3CN(c4ccccc4)C4(CCN(C(=O)c5ccc(C(C)(C)C)cc5)CC4)C3=O)CC2)nn1CC | 5.4
21 | CC(C)(C)OC(=O)NCCCCNC(=O)CN1CN(c2ccccc2)C2(CCN(C(=O)c3ccc(C4CCCCC4)cc3)CC2)C1=O | 5.5
22 | CC(C)(C)c1ccc(C(=O)N2CCC3(CC2)C(=O)N(CC(=O)NCCCCCN)CN3c2ccccc2)cc1 | 7.7
23 | CC(C)(C)OC(=O)NCCNC(=O)CN1CN(c2ccccc2)C2(CCN(C(=O)c3ccc(C(C)(C)C)cc3)CC2)C1=O | 9.4
24 | CC(C)(C)OC(=O)NC1CCN(C(=O)CN2CN(c3ccccc3)C3(CCN(C(=O)c4ccc(C5CCCCC5)cc4)CC3)C2=O)CC1 | 4.8
25 | CC(C)(C)OC(=O)NCCNC(=O)CN1CN(c2ccccc2)C2(CCN(C(=O)c3ccc(C4CCCCC4)cc3)CC2)C1=O | 13.7
26 | CC(C)(C)c1ccc(C(=O)N2CCC3(CC2)C(=O)N(CC(=O)NCCC(=O)O)CN3c2ccccc2)cc1 | 23.6
27 | O=C(CN1CN(c2ccccc2)C2(CCN(C(=O)c3ccc(C4CCCCC4)cc3)CC2)C1=O)N1CCNCC1 | 6.5
28 | CC(C)(C)c1ccc(C(=O)N2CCC3(CC2)C(=O)N(CC(=O)N2CCN(S(=O)(=O)c4ccccc4)CC2)CN3c2ccccc2)cc1 | 15
29 | COC(=O)CNC(=O)CN1CN(c2ccccc2)C2(CCN(C(=O)c3ccc(C(C)(C)C)cc3)CC2)C1=O | 16.6
30 | CC(C)(C)c1ccc(C(=O)N2CCC3(CC2)C(=O)N(CC(=O)NCCCCN)CN3c2ccccc2)cc1 | 14
31 | CC(C)(C)c1ccc(C(=O)N2CCC3(CC2)C(=O)N(CC(=O)N2CCCC(O)C2)CN3c2ccccc2)cc1 (centres undefined) | 12.2
32 | CC(C)(C)c1ccc(C(=O)N2CCC3(CC2)C(=O)N(CC(=O)NCCCNS(C)(=O)=O)CN3c2ccccc2)cc1 | 10.4
33 | O=C(CN1CN(c2ccccc2)C2(CCN(C(=O)c3ccc(C4CCCCC4)cc3)CC2)C1=O)N1CCN(S(=O)(=O)c2ccccc2)CC1 | 14.2
34 | CC(C)(C)c1ccc(C(=O)N2CCC3(CC2)C(=O)N(CC(=O)N2CCN(S(C)(=O)=O)CC2)CN3c2ccccc2)cc1 | 19
35 | CC(C)(C)c1ccc(C(=O)N2CCC3(CC2)C(=O)N(CC(=O)N2CCCC(C(N)=O)C2)CN3c2ccccc2)cc1 (centres undefined) | 16.9

Molecules with a lower IC50, results first:

Row | IC50 [µM] | SMILES
36 | 4.2 | CC(C)(C)OC(=O)NCC1CCN(C(=O)CN2CN(c3ccccc3)C3(CCN(C(=O)c4ccc(C(C)(C)C)cc4)CC3)C2=O)CC1
37 | 3.7 | COC(=O)CNC(=O)CN1CN(c2ccccc2)C2(CCN(C(=O)c3ccc(C4CCCCC4)cc3)CC2)C1=O
38 | 1.1 | O=C(CN1CN(c2ccccc2)C2(CCN(C(=O)c3ccc(C4CCCCC4)cc3)CC2)C1=O)N1CCCCC1
39 | 3.9 | CCC1CCCN(C(=O)CN2CN(c3ccccc3)C3(CCN(C(=O)c4ccc(C(C)(C)C)cc4)CC3)C2=O)C1 (centres undefined)
40 | 3.8 | CC(C)(C)OC(=O)NCC1CCCN(C(=O)CN2CN(c3ccccc3)C3(CCN(C(=O)c4ccc(C5CCCCC5)cc4)CC3)C2=O)C1 (centres undefined)
41 | 3.6 | CC1CCCN(C(=O)CN2CN(c3ccccc3)C3(CCN(C(=O)c4ccc(C5CCCCC5)cc4)CC3)C2=O)C1 (centres undefined)
42 | 3.8 | CC(C)(C)c1ccc(C(=O)N2CCC3(CC2)C(=O)N(CC(=O)NCCCCCO)CN3c2ccccc2)cc1
43 | 4.4 | CC(C)(C)OC(=O)NC1CCCN(C(=O)CN2CN(c3ccccc3)C3(CCN(C(=O)c4ccc(C5CCCCC5)cc4)CC3)C2=O)C1 (centres undefined)
44 | 4.5 | COC(=O)CCCNC(=O)CN1CN(c2ccccc2)C2(CCN(C(=O)c3ccc(C4CCCCC4)cc3)CC2)C1=O
45 | 4 | CC(C)(C)c1ccc(C(=O)N2CCC3(CC2)C(=O)N(CC(=O)N2CCC(CO)CC2)CN3c2ccccc2)cc1
46 | 2.6 | CCC1CCCN(C(=O)CN2CN(c3ccccc3)C3(CCN(C(=O)c4ccc(C5CCCCC5)cc4)CC3)C2=O)C1 (centres undefined)
47 | 3.2 | CC(C)(C)OC(=O)NCCCNC(=O)CN1CN(c2ccccc2)C2(CCN(C(=O)c3ccc(C(C)(C)C)cc3)CC2)C1=O
48 | 3.1 | CC(C)(C)OC(=O)NCCCCCNC(=O)CN1CN(c2ccccc2)C2(CCN(C(=O)c3ccc(C(C)(C)C)cc3)CC2)C1=O
49 | 3.7 | CC(C)(C)OC(=O)NCCCNC(=O)CN1CN(c2ccccc2)C2(CCN(C(=O)c3ccc(C4CCCCC4)cc3)CC2)C1=O
50 | 1.1 | O=C(CN1CN(c2ccccc2)C2(CCN(C(=O)c3ccc(C4CCCCC4)cc3)CC2)C1=O)N1CCC(CO)CC1
51 | 3.1 | NCCCNC(=O)CN1CN(c2ccccc2)C2(CCN(C(=O)c3ccc(C4CCCCC4)cc3)CC2)C1=O
52 | 4.5 | COC(=O)CCNC(=O)CN1CN(c2ccccc2)C2(CCN(C(=O)c3ccc(C4CCCCC4)cc3)CC2)C1=O
53 | 3.1 | CCOC(=O)C1CCN(C(=O)CN2CN(c3ccccc3)C3(CCN(C(=O)c4ccc(C(C)(C)C)cc4)CC3)C2=O)CC1
54 | 4.2 | CC(C)(C)OC(=O)NC1CCCN(C(=O)CN2CN(c3ccccc3)C3(CCN(C(=O)c4ccc(C(C)(C)C)cc4)CC3)C2=O)C1 (centres undefined)
